Experiments:
Assay in all cases: relative viability (nuclei count vs DMSO), 5 days (fraction); higher = more cells survive
[1] = system: CAL-12T
Summary of the method: (§1)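 Nuclei were stained with Hoechst during a one-step fixation (final 0.05% Triton X-100, 1% formaldehyde, 1 ug/ml Hoechst) carried out 5 days after dosing, then counted on 4× images. The cells, lung cancer lines in 1536-well plates, had been dosed by pin tool the day after seeding with one drug alone or a fixed anchor-drug dose plus five library-drug doses (not always all listed) in √10 steps. Relative viability is the nuclei count in treated wells divided by that in vehicle wells, and each value is the median of duplicate plates.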

[2] = system: LCLC-103H
Summary of the method: as §1

[3] = system: HCC-366
Summary of the method: as §1

[4] = system: SW 1573
Summary of the method: as §1

[5] = system: HOP-62
Summary of the method: as §1

[6] = system: NCI-H1355
Summary of the method: as §1

[7] = system: COR-L 105
Summary of the method: as §1

[8] = system: HCC-827
Summary of the method: as §1

[9] = system: NCI-H727
Summary of the method: as §1

[10] = system: NCI-H1755
Summary of the method: as §1

[11] = system: A-427
Summary of the method: as §1

[12] = system: NCI-H2009
Summary of the method: as §1

[13] = system: NCI-H23
Summary of the method: as §1

[14] = system: EMC-BAC-2
Summary of the method: as §1

[15] = system: NCI-H522
Summary of the method: as §1

[16] = system: NCI-H2228
Summary of the method: as §1

[17] = system: NCI-H1915
Summary of the method: as §1

[18] = system: NCI-H1437
Summary of the method: as §1

[19] = system: NCI-H1395
Summary of the method: as §1

[20] = system: SK-LU-1
Summary of the method: as §1

[21] = system: NCI-H460
Summary of the method: as §1

[22] = system: NCI-H1975
Summary of the method: as §1

[23] = system: HARA
Summary of the method: as §1

Clc1ccc(Nc2nnc(Cc3ccncc3)c3ccccc23)cc1 [Vatalanib] + O=C(CCCCCCC(=O)Nc1ccccc1)NO [Vorinostat] (partner 1 µM)
relative viability ([1]; first compound 0.04 µM): 0.872
relative viability ([1]; first compound 0.1265 µM): 0.714
relative viability ([1]; first compound 0.4 µM): 0.734
relative viability ([1]; first compound 1.265 µM): 0.737
relative viability ([1]; first compound 4 µM): 0.784
relative viability ([2]; first compound 0.04 µM): 0.776
relative viability ([2]; first compound 0.1265 µM): 0.765
relative viability ([2]; first compound 0.4 µM): 0.826
relative viability ([2]; first compound 1.265 µM): 0.738
relative viability ([2]; first compound 4 µM): 0.726
relative viability ([3]; first compound 0.04 µM): 0.361
relative viability ([3]; first compound 0.1265 µM): 0.434
relative viability ([3]; first compound 0.4 µM): 0.451
relative viability ([3]; first compound 1.265 µM): 0.254
relative viability ([3]; first compound 4 µM): 0.394
relative viability ([4]; first compound 0.1265 µM): 0.812
relative viability ([4]; first compound 0.4 µM): 1.4
relative viability ([4]; first compound 1.265 µM): 0.839
relative viability ([4]; first compound 4 µM): 0.624
relative viability ([5]; first compound 0.04 µM): 0.6
relative viability ([5]; first compound 0.1265 µM): 0.557
relative viability ([5]; first compound 0.4 µM): 0.758
relative viability ([5]; first compound 1.265 µM): 0.597
relative viability ([5]; first compound 4 µM): 0.642
relative viability ([6]; first compound 0.04 µM): 0.684
relative viability ([6]; first compound 0.1265 µM): 0.691
relative viability ([6]; first compound 0.4 µM): 0.727
relative viability ([6]; first compound 1.265 µM): 0.57
relative viability ([6]; first compound 4 µM): 0.581
relative viability ([7]; first compound 0.04 µM): 0.846
relative viability ([7]; first compound 0.1265 µM): 0.806
relative viability ([7]; first compound 0.4 µM): 0.829
relative viability ([7]; first compound 1.265 µM): 0.905
relative viability ([7]; first compound 4 µM): 0.794
relative viability ([8]; first compound 0.04 µM): 0.767
relative viability ([8]; first compound 0.1265 µM): 0.953
relative viability ([8]; first compound 1.265 µM): 0.741
relative viability ([8]; first compound 4 µM): 0.86
relative viability ([9]; first compound 0.1265 µM): 1.28
relative viability ([9]; first compound 0.4 µM): 1.17
relative viability ([9]; first compound 1.265 µM): 1.1
relative viability ([9]; first compound 4 µM): 1.17
relative viability ([10]; first compound 0.04 µM): 0.799
relative viability ([10]; first compound 0.1265 µM): 0.891
relative viability ([10]; first compound 0.4 µM): 0.757
relative viability ([10]; first compound 1.265 µM): 0.759
relative viability ([10]; first compound 4 µM): 0.694
relative viability ([11]; first compound 0.04 µM): 0.874
relative viability ([11]; first compound 0.1265 µM): 0.852
relative viability ([11]; first compound 0.4 µM): 0.945
relative viability ([11]; first compound 4 µM): 0.83
relative viability ([12]; first compound 0.04 µM): 0.767
relative viability ([12]; first compound 0.1265 µM): 0.741
relative viability ([12]; first compound 0.4 µM): 0.735
relative viability ([12]; first compound 1.265 µM): 0.732
relative viability ([12]; first compound 4 µM): 0.687
relative viability ([13]; first compound 0.04 µM): 0.57
relative viability ([13]; first compound 0.1265 µM): 0.558
relative viability ([13]; first compound 0.4 µM): 0.77
relative viability ([13]; first compound 1.265 µM): 0.495
relative viability ([13]; first compound 4 µM): 0.546
relative viability ([14]; first compound 0.04 µM): 0.448
relative viability ([14]; first compound 0.1265 µM): 0.414
relative viability ([14]; first compound 0.4 µM): 0.392
relative viability ([14]; first compound 4 µM): 0.457
relative viability ([15]; first compound 0.04 µM): 0.634
relative viability ([15]; first compound 0.1265 µM): 0.898
relative viability ([15]; first compound 0.4 µM): 1.06
relative viability ([15]; first compound 1.265 µM): 1
relative viability ([15]; first compound 4 µM): 0.895
relative viability ([16]; first compound 0.04 µM): 0.795
relative viability ([16]; first compound 0.1265 µM): 0.589
relative viability ([16]; first compound 0.4 µM): 0.653
relative viability ([16]; first compound 1.265 µM): 0.723
relative viability ([16]; first compound 4 µM): 0.751
relative viability ([17]; first compound 0.04 µM): 0.507
relative viability ([17]; first compound 0.1265 µM): 0.544
relative viability ([17]; first compound 0.4 µM): 0.587
relative viability ([17]; first compound 1.265 µM): 0.482
relative viability ([17]; first compound 4 µM): 0.518
relative viability ([18]; first compound 0.04 µM): 0.836
relative viability ([18]; first compound 0.1265 µM): 0.851
relative viability ([18]; first compound 0.4 µM): 0.88
relative viability ([18]; first compound 1.265 µM): 0.616
relative viability ([18]; first compound 4 µM): 0.673
relative viability ([19]; first compound 0.04 µM): 0.71
relative viability ([19]; first compound 0.1265 µM): 0.55
relative viability ([19]; first compound 0.4 µM): 0.6
relative viability ([19]; first compound 4 µM): 0.726
relative viability ([20]; first compound 0.04 µM): 0.829
relative viability ([20]; first compound 0.1265 µM): 0.798
relative viability ([20]; first compound 0.4 µM): 1
relative viability ([20]; first compound 1.265 µM): 0.721
relative viability ([20]; first compound 4 µM): 0.8
relative viability ([21]; first compound 0.04 µM): 0.859
relative viability ([21]; first compound 0.1265 µM): 0.636
relative viability ([21]; first compound 0.4 µM): 0.765
relative viability ([21]; first compound 1.265 µM): 0.702
relative viability ([21]; first compound 4 µM): 0.61
relative viability ([22]; first compound 0.04 µM): 0.674
relative viability ([22]; first compound 0.1265 µM): 0.691
relative viability ([22]; first compound 0.4 µM): 0.726
relative viability ([22]; first compound 1.265 µM): 0.66
relative viability ([22]; first compound 4 µM): 0.71
relative viability ([23]; first compound 0.04 µM): 0.643
relative viability ([23]; first compound 0.1265 µM): 0.51
relative viability ([23]; first compound 0.4 µM): 0.479
relative viability ([23]; first compound 1.265 µM): 0.566
relative viability ([23]; first compound 4 µM): 0.481
